Laboratory results as given in publication PMC12626222, “Benzoic and salicylic acids inhibit β-substituted alanine synthase 4;1 in common bean” (Plant Physiology, 2025).

Experiments:
[1] = target: T1, PvBSAS4;1 (beta-substituted alanine synthase 4;1, cytosolic cysteine synthase) (Phaseolus vulgaris, UniProt V7BIJ9); test: X-ray crystal structure, […] Å; assay type: binding
T1 construct: gene PHAVU_007G185200g

[2] = target: T1, PvBSAS4;1 (beta-substituted alanine synthase 4;1, cytosolic cysteine synthase); test: acid-ninhydrin colorimetric assay of cysteine formation, […] nm; assay type: biochemical
[3] = target: T1, PvBSAS4;1 (beta-substituted alanine synthase 4;1, cytosolic cysteine synthase); test: acid-ninhydrin colorimetric assay, Lineweaver-Burk plot; assay type: biochemical; conditions: 2 to 8 mM O-acetylserine, 1.5 mM sodium sulfide, 100 mM MOPSO pH 7.0, 25 °C; apparent values plotted against benzoic acid concentration

T1 sequence (V7BIJ9 entry or part of it): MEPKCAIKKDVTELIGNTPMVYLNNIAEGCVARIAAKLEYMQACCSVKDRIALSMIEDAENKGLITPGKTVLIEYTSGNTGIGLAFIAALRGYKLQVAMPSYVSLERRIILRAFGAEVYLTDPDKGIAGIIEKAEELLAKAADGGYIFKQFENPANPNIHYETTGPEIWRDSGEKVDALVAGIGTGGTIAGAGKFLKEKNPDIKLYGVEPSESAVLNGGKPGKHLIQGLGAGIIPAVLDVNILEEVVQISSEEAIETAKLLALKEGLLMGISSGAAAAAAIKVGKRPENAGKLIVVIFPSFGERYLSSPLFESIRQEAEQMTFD

Question: Which “X-ray crystal structure, 1.60 Å” value ([1]; co-purified from E. coli, active site, near PLP (internal aldimine), carboxylate bound by Thr76, Ser77, Asn79, Thr80, Gln150) does the source give for `O=C(O)c1ccccc1` [BEZ, benzoic acid] here?
Answer: contains the PLP prosthetic group and a molecule of benzoic acid (Fig. 3A)

Question: What about the IC50 [2] of the same compound?
Answer: ~600 µM

Question: With `CC(=O)OC[C@H](N)C(=O)O` [OAS, O-acetylserine] as the compound, how does the Ks app [3] read?
Answer: the replot of Ks app versus the concentration of inhibitor

Question: How did the “X-ray crystal structure, 1.60 Å” value ([1]; covalent internal aldimine with Lys48, co-purified) turn out when `Cc1ncc(COP(=O)(O)O)c(C=O)c1O` [PLP, pyridoxal 5′-phosphate] was run?
Answer: PLP is stabilized by a covalent bond to Lys48, creating an internal aldimine

Question: Which IC50 [2] does the source give for `O=C(O)c1ccccc1O` [salicylic acid] here?
Answer: 600 µM
